The record followed here is ChEMBL document CHEMBL3507680, “University of Dundee, Gates Library screen for HepG2 cell viability”.

A short description of this data set: Human HepG2 cell viability assay in 384 well format. The format is toxicity, cell-based. Details: dose 125 nL, time 70.5 hour; concentration not given beside the values. The conditions noted are these: HepG2 cells, read-out: Inhibition.

SMILES strings stand for the structures.

`Cc1nc(C)c(C(=O)N2CCN(CCOc3ccccc3C)CC2)o1`: the cytotoxicity at 70.5 h is -8.43%.
Regarding `CCCC(=O)N1CCCN(C(=O)c2oc(C)nc2C)CC1`, the cytotoxicity at 70.5 h is -4.74%.
`Cc1nc(CN(CCS(C)(=O)=O)C(C)C)no1`: the cytotoxicity at 70.5 h is -5.83%.
For `Cc1cc(C(=O)NC2(c3ccc(Br)cc3)CC2)n(C)n1`, the cytotoxicity at 70.5 h is 6.63%.
Turning to `CC(=O)c1cc(C(=O)NC2(c3ccccc3)CCC2)n(C)c1`, the cytotoxicity at 70.5 h was -6.28%.
The value for `Cc1cc(C)cc(OCCC(=O)NC2CC(=O)N(C)C2)c1` (stereo not given) was -0.646%; that for `Cc1ncc(COc2ccc(N(C)S(C)(=O)=O)cc2)s1` was 3.82%; that for `CCC(CC)CS(=O)(=O)NC(=O)C1CCCC1` was 26.6%.
With `Cc1nc(C)c(COc2ccc(N(C)S(C)(=O)=O)cc2)s1`, the cytotoxicity at 70.5 h was found to be 2.74%.
For `NC(=O)c1ccc(CNC2CCCSC2)cc1` (stereo not given), the cytotoxicity at 70.5 h is -1.72%.
Regarding `CS(=O)(=O)c1cccc(S(=O)(=O)NC(=O)CC2CCCCC2)c1`, the cytotoxicity at 70.5 h was -4.36%.
With `CC(=O)Nc1cc(CN(C)C)ccc1C` the figure was -6.9%.
The value for `CS(=O)(=O)c1cccc(S(=O)(=O)NC(=O)CC2CCCC2)c1` was -3.3%; that for `O=C(Nc1ccccc1)c1ccc(NCc2ccncc2)nn1` was -5.4%; that for `CN(c1ccc(OCc2cnc(Cl)s2)cc1)S(C)(=O)=O` was 5.74%.
The value for `CS(=O)(=O)c1cccc(S(=O)(=O)NC(=O)CCC2CCCCC2)c1` was -7.19%.
With `CC1(CCNC(=O)NCc2ccsc2)OCCO1`, the cytotoxicity at 70.5 h is -6.29%.
With `CCC(C)CS(=O)(=O)NC(=O)C1CCC1` (stereo not given), the cytotoxicity at 70.5 h came to 21.3%.
With `FC(F)(F)c1cccc(C2(CNCc3cc[nH]c3)CCOCC2)c1` the figure was -3.76%; with `CCC(CC)CS(=O)(=O)NC(=O)C1CCC1`, -4.87%.
The value for `CC(=O)c1cccc(S(=O)(=O)N2CCC(c3n[nH]c(C)n3)CC2)c1` was 2.75%.
On to `OC1(CN2CCC(Cc3ccccc3)CC2)CCC1`, for which the cytotoxicity at 70.5 h is -4.49%.
As for `COc1cccc(S(=O)(=O)NC(=O)CC2CCCC2)c1`, the cytotoxicity at 70.5 h was -3.66%.
The value for `Cc1cc(C)n(C2CN(CCc3ccccn3)C2)n1` was -11.1%.
With `CCN(C(=O)CCOC)C(c1ccc(Cl)cc1)c1ccccn1` (stereo not given) the figure was -6.55%; with `O=C(COc1ccccc1NCc1ccoc1)N1CCOCC1`, -18.1%.
With `CCCn1nnnc1COc1ccc(C(=O)OC)cc1OC` the figure was -16.9%; with `Cc1nn(C)c2ncc(CN3CCN(c4ncccn4)CC3)cc12`, -21.9%.
Consider `CCC(C)NS(=O)(=O)c1ccc(C(=O)NC2(C#N)CCC2)cc1` (stereo not given), for which the cytotoxicity at 70.5 h came to 39.3%.
In the case of `c1ccc(CCN2CC(n3cccn3)C2)nc1`, the cytotoxicity at 70.5 h is -15.6%.
The value for `CC(C)C(C(=O)N1CCN(c2ccncc2)CC1)n1cncn1` (stereo not given) was -7.42%.
The value for `CN(C(=O)c1cccc(C(=O)NCC(F)(F)F)c1)c1ccccc1` was 10.6%; that for `Fc1ccc(CN2CCCC(Cn3cncn3)C2)c2ncccc12` (stereo not given) was -5.13%.
With `CC(C)(C)c1ccc(C2(C(=O)NCCS(N)(=O)=O)CC2)cc1` the figure was -9.31%; with `Cc1cc(CNC(=O)NC(C)c2ccc(N3CCOCC3)cc2)no1` (stereo not given), -5.55%; with `Cc1ccc(C(C)NC(=O)Cc2c(C)nc3c(c2C)c(=O)[nH]n3C)o1` (stereo not given), -4.59%.
As to `Cc1n[nH]cc1CNc1ccc2c(c1)N(C(=O)OC(C)(C)C)CCC2`, the cytotoxicity at 70.5 h was -5.44%.
The value for `c1cnnc(N2CCCC(NCc3nc(C4CC4)no3)C2)c1` (stereo not given) was -1.23%.
The value for `CN(Cc1cccc(F)c1)C(=O)CN1CCCCC1Cn1cncn1` (stereo not given) was -9.08%; that for `CCN(Cc1nc(C(C)C)no1)Cc1cccs1` was -10.8%.
The value for `CN(Cc1ccc(C#N)cc1)Cc1noc(C(C)(C)C)n1` was -10.4%.
Turning to `CCCS(=O)(=O)NCc1cccnc1OCC`, the cytotoxicity at 70.5 h is -6.74%.
As to `CCc1nc(C2CCCN2Cc2nc(C3CC3)no2)no1` (stereo not given), the cytotoxicity at 70.5 h was -5.95%.
Consider `O=C(Cc1ccccc1F)N1CCN(C(=O)c2cccc(F)c2)CC1`, for which the cytotoxicity at 70.5 h stood at 38%.
The value for `COc1ccc(CS(=O)(=O)CC(=O)NCc2ccccc2F)cc1F` was -11.2%; that for `O=C(COc1cccc2c1CCC2=O)NCc1ccccc1F` was -2.34%; that for `Cc1cc(NS(=O)(=O)c2ccccc2F)ccc1-n1cccc1C(=O)O` was -1.31%.
In the case of `O=C(c1ccco1)N1CCCC1C1CCN(Cc2ccccc2)CC1` (stereo not given), the cytotoxicity at 70.5 h was -5.08%.
With `O=C(CN1CCC(C(=O)c2cc(F)ccc2F)CC1)NC1CCCC1` the figure was 24.6%; with `CCCC(C)C(=O)NCc1cn2cc(Br)ccc2n1` (stereo not given), -7.73%; with `COc1cccc(CNC(=O)C(c2cccc(F)c2)N2CCOCC2)c1` (stereo not given), 10.7%.
Turning to `Cc1ccc(CN(C)C(=O)CN2CC(n3cccn3)C2)o1`, the cytotoxicity at 70.5 h was 23.5%.
For the compound `Cc1nc(NC(=O)CNC(=O)c2c(F)cccc2Cl)n[nH]1`, the cytotoxicity at 70.5 h was -6.51%.
`CN(C)c1cc(C(=O)NCCc2n[nH]c(=O)[nH]2)ccn1`: the cytotoxicity at 70.5 h is -5.07%.
For the compound `CNC(=O)Nc1cc(-c2ccc(Br)cc2)nn1CCO`, the cytotoxicity at 70.5 h is -0.486%.
Regarding `Cn1cccc1CNC(=O)N(CCO)C1CCCc2ccccc21` (stereo not given), the cytotoxicity at 70.5 h is 7.35%.
For `O=C(Nc1nc2c(s1)CCC2)c1cccnc1N1CCOCC1`, the cytotoxicity at 70.5 h is -0.827%.
Turning to `COc1cc(C(=O)N(Cc2ccco2)C2CC2)cc2c1OCCO2`, the cytotoxicity at 70.5 h was -0.578%.
As to `O=C(NCC(O)c1ccc(F)c(F)c1)c1cccnc1O` (stereo not given), the cytotoxicity at 70.5 h is -3.92%.
With `O=C(NCCCN1CCOCC1)c1cc(-c2ccco2)[nH]n1` the figure was -11.6%.
Consider `Cc1csc(CNC(=O)NC2CCN(c3ncccn3)CC2)n1`, for which the cytotoxicity at 70.5 h is -11.3%.
With `O=C(Nc1nncs1)NC1CCOc2ccccc21` (stereo not given) the figure was 3.46%.
For `O=C(Nc1nncs1)NC1CCc2ccccc21` (stereo not given), the cytotoxicity at 70.5 h is -8.87%.
Take `Cc1cc(-c2nnn(CCC(N)=O)n2)ccc1F`: the cytotoxicity at 70.5 h was -9.65%.
In the case of `O=C(NC1CC1)c1cc(NC(=O)N2CCCC(O)C2)ccc1Cl` (stereo not given), the cytotoxicity at 70.5 h was -7.86%.
With `Cc1nn(C(C)C)c(C)c1NC(=O)c1ccccc1` the figure was -0.962%.
Take `O=C(NCC(O)c1ccc(F)c(F)c1)c1cccnc1OCC(F)(F)F` (stereo not given): the cytotoxicity at 70.5 h is -8.69%.
The value for `O=C(CCNC(=O)c1ccccc1N1CCOCC1)NC1CCCC1` was -1.96%.
With `O=C(CN(Cc1ccccc1)CC1CCOCC1)Nc1nccs1` the figure was -0.217%; with `CC1Cc2ccccc2N1Cc1occc1C(=O)OCC(N)=O` (stereo not given), 2.01%.
The value for `O=C(CN(Cc1ccccc1)CC1CCOCC1)NC(=O)NC1CC1` was 11.8%; that for `Cc1ccoc1-c1nnc(CNCC2CCCN2c2cccnn2)o1` (stereo not given) was -4.49%.
Turning to `COc1cc(C)sc1C(=O)N1CCC(Nc2cccnc2)CC1`, the cytotoxicity at 70.5 h is -5.15%.
With `CC(C)c1ccc(-c2nnn(CCNS(C)(=O)=O)n2)cc1` the figure was 3.94%.
The value for `Cc1noc(C)c1CNC(=O)N1CCC(C(O)c2ccccc2)CC1` (stereo not given) was -6%.
`CC(=O)c1c(F)cccc1N1CCC(Cc2cccnc2)CC1`: the cytotoxicity at 70.5 h is 9.22%.
The value for `CC(C)Cc1noc(CN2CCN(C(=O)c3cccc(F)c3)CC2)n1` was -3.6%; that for `CC(=O)c1c(F)cccc1N1CCC(CS(N)(=O)=O)CC1` was -10.5%; that for `CN(Cc1nnc(C2CC2)n1C)C1CCN(Cc2ccccc2F)C1` (stereo not given) was -2.35%.
With `CN(C(=O)Cc1ccc2c(c1)OCCO2)C1CCCC1` the figure was 19.8%; with `CN(CCC#N)C(=O)CCOc1cccc(F)c1`, 13%; with `O=C(NC1CCCN(c2ncccn2)C1)c1ccoc1` (stereo not given), -1.17%.
As to `Cc1ccc(CN2CCC3(CC(C(=O)NC4CCC4)=NO3)C2)o1` (stereo not given), the cytotoxicity at 70.5 h is -14.5%.
With `O=C(NCCN1CCOCC1)C1=NOC2(CCN(Cc3nccs3)C2)C1` (stereo not given) the figure was -17.4%; with `O=C(NC1CCC1)C1=NOC2(CCN(Cc3ccccc3)C2)C1` (stereo not given), -10.6%.
With `COCC(=O)N1CC[C@@H](N2CCOCC2)[C@@H]1Cc1cccnc1`, the cytotoxicity at 70.5 h was -12.2%.
For the compound `Cc1noc(C)c1C(=O)N1C[C@@H]2C[C@@H](c3ccncn3)O[C@@H]2C1`, the cytotoxicity at 70.5 h was -3.05%.
The value for `Cc1oncc1C(=O)N1CC[C@H]2C[C@H](c3ccncn3)O[C@@H]2C1` was 7.58%.
With `O=C(c1c2c(N3CCCC3)ncnc2n2ccccc12)N1CCCC1` the figure was -11%; with `NC(=O)c1ccc(CNC2CC2)cc1`, 16%.
With `FC(F)(F)c1cccc(-c2c[nH]c(C3CCCN3)n2)c1` (stereo not given) the figure was 1.03%; with `O=C(c1cccs1)N1CC[C@@H](N2CCOCC2)[C@@H]1Cc1ccccc1`, -15.7%; with `O=C1COC2(COCCN(Cc3ccsc3)C2)CN1c1ccoc1` (stereo not given), 32.5%.
For the compound `O=C1CC2(CCN(Cc3ccco3)C2)CN1c1ccc2c(c1)OCO2` (stereo not given), the cytotoxicity at 70.5 h stood at 11.6%.
With `CN(C)S(=O)(=O)N1CC[C@]2(C[C@@H](Oc3ncccc3F)CO2)C1` the figure was 13.4%; with `O=C(NCc1ccco1)[C@H]1CC[C@@H]2[C@@H](CCN2c2ncccn2)O1`, 12.4%.
`Cc1ccc(N2CC[C@H]3O[C@H](C(=O)NCc4ccco4)CC[C@H]32)nn1`: the cytotoxicity at 70.5 h was -18.3%.
Regarding `Cc1ccc(CN2C[C@@H]3[C@@H](C2)OCC(=O)N3Cc2ccncc2)s1`, the cytotoxicity at 70.5 h worked out at 10.5%.
Consider `O=C1CO[C@@H]2CN(Cc3nccs3)C[C@H]2N1Cc1ccncc1`, for which the cytotoxicity at 70.5 h is -11.4%.
Regarding `CN(Cc1ccncc1)C1COC2(CCN(Cc3ccsc3)CC2)C1` (stereo not given), the cytotoxicity at 70.5 h is -15.1%.
